Test results taken from patent publication US20190105367A1, “ANTIMICROBIAL 4-OXOQUINOLIZINES” (Emergent Product Development Gaithersburg Inc., priority 2011, published 2019).

Assays:
[1] = test system: A. baumannii A401; assay: MIC without and with sub-inhibitory polymyxin B (Example 4); assay type: cell-based, Acinetobacter baumannii; conditions: A baumannii A 401; for MIC: 2nd experiment
[2] = test system: A. baumannii J2; assay: Preliminary MBC without and with sub-inhibitory polymyxin B (Example 4); assay type: cell-based, Acinetobacter baumannii; conditions: A. baumannii J2, preliminary MBC; for MBC: 2nd experiment
[3] = test system: A. baumannii A329; assay: MIC without and with sub-inhibitory polymyxin B (Example 4); assay type: cell-based, Acinetobacter baumannii; conditions: A. baumannii A329
[4] = test system: A. baumannii J2; assay: as above; assay type: cell-based, Acinetobacter baumannii; conditions: A. baumannii J2
[5] = test system: A. baumannii A329; assay: Preliminary MBC without and with sub-inhibitory polymyxin B (Example 4); assay type: cell-based, Acinetobacter baumannii; conditions: for MBC: 2nd experiment
[6] = test system: A. baumannii NCTC 13301; assay: MIC without and with sub-inhibitory polymyxin B (Example 4); assay type: cell-based, Acinetobacter baumannii; conditions: A. baumannii NCTC 13301, 2nd experiment
[7] = test system: A. baumannii A390; assay: as above; assay type: cell-based, Acinetobacter baumannii; conditions: A. baumannii A390
[8] = test system: A. baumannii NCTC 13301; assay: as above; assay type: cell-based, Acinetobacter baumannii; conditions: A. baumannii NCTC 13301, 1st experiment
[9] = test system: Acinetobacter sp. (H064200250); assay: as above; assay type: cell-based
[10] = test system: A. baumannii A401; assay: Preliminary MBC without and with sub-inhibitory polymyxin B (Example 4); assay type: cell-based, Acinetobacter baumannii; conditions: for MBC: 2nd experiment
[11] = test system: A. baumannii A14; assay: MIC without and with sub-inhibitory polymyxin B (Example 4); assay type: cell-based, Acinetobacter baumannii; conditions: A. baumannii A14, 2nd experiment
[12] = test system: A. baumannii A472; assay: as above; assay type: cell-based, Acinetobacter baumannii; conditions: A. baumannii A472; for MIC: 2nd experiment
[13] = test system: A. baumannii A489; assay: Preliminary MBC without and with sub-inhibitory polymyxin B (Example 4); assay type: cell-based, Acinetobacter baumannii; conditions: A. baumannii A489, preliminary MBC; for MBC: 2nd experiment
[14] = test system: A. baumannii A390; assay: as above; assay type: cell-based, Acinetobacter baumannii; conditions: for MBC: 2nd experiment
In short: (§1)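 Plates were incubated for 18-20 hours at 37° C. MBC was taken as the lowest concentration giving colony growth ca. 90% below the positive control, typically where only single colonies or none appeared.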

[15] = test system: A. baumannii A473; assay: as above; assay type: cell-based, Acinetobacter baumannii; conditions: for MBC: 2nd experiment
In short: as §1

[16] = test system: A. baumannii NCTC 13301; assay: as above; assay type: cell-based, Acinetobacter baumannii; conditions: A. baumannii NCTC 13301, preliminary MBC; for MBC: 2nd experiment
In short: as §1

[17] = test system: A. baumannii A14; assay: as above; assay type: cell-based, Acinetobacter baumannii; conditions: 2nd experiment
In short: as §1

[18] = test system: A. baumannii A14; assay: as above; assay type: cell-based, Acinetobacter baumannii; conditions: A. baumannii A14, preliminary MBC, 1st experiment
[19] = test system: A. baumannii ATCC 19606; assay: MIC without and with sub-inhibitory polymyxin B (Example 4); assay type: cell-based, Acinetobacter baumannii; conditions: A. baumannii ATCC 19606
[20] = test system: A. baumannii A14; assay: as above; assay type: cell-based, Acinetobacter baumannii; conditions: 1st experiment
[21] = test system: A. baumannii ATCC 19606; assay: Preliminary MBC without and with sub-inhibitory polymyxin B (Example 4); assay type: cell-based, Acinetobacter baumannii; conditions: for MBC: 2nd experiment
[22] = test system: A. baumannii A472; assay: as above; assay type: cell-based, Acinetobacter baumannii; conditions: A. baumannii A472, preliminary MBC; for MBC: 2nd experiment
[23] = test system: A. baumannii A489; assay: MIC without and with sub-inhibitory polymyxin B (Example 4); assay type: cell-based, Acinetobacter baumannii; conditions: A. baumannii A489
[24] = +0.06 μg/ml polymyxin B, 1st experiment
[25] = ratio, PB 0.06 μg/ml, 1st experiment
[26] = without polymyxin B, 1st experiment
[27] = +[…] polymyxin B, 1st experiment
[28] = Acinetobacter spp. H064200250 (OXA51), +[…] PB, 2nd experiment

## Polymyxin B [reference compound]
[1]; +0.06 μg/ml PB
  MIC: 0.25 µg/mL
[1]; [24]
  MIC +0.06 μg/ml PB: 0.5 µg/mL
[1]; [25]
  MIC without PB/MIC + PB: 2
[1]; without PB
  MIC: 0.5 µg/mL
[1]; [26]
  MIC without PB: 1 µg/mL
[2]; +[…] PB
  MBC: ≤0.125 µg/mL
[2]; [27]
  MBC +[…] PB: 0.5 µg/mL
[2]; without PB
  MBC: 0.5 µg/mL
[2]; [26]
  MBC without PB: 0.5 µg/mL
[3]; +0.06 μg/ml PB, 2nd experiment
  MIC: 0.25 µg/mL
  MIC without PB/MIC + PB: 1
[3]; without PB, 2nd experiment
  MIC: 0.25 µg/mL
[3]; [26]
  MIC without PB: 0.5 µg/mL
[4]; +[…] PB, 2nd experiment
  MIC: ≤0.125 µg/mL
  MIC without PB/MIC + PB: ≥4
[4]; [27]
  MIC +[…] PB: 0.5 µg/mL
[4]; ratio, PB […], 1st experiment
  MIC without PB/MIC + PB: 1
[4]; without PB, 2nd experiment
  MIC: 0.5 µg/mL
[4]; [26]
  MIC without PB: 0.5 µg/mL
[5]; A. baumannii A329, +0.06 μg/ml PB
  MBC: 0.25 µg/mL
[5]; A. baumannii A329, without PB
  MBC: 0.25 µg/mL
[5]; A. baumannii A329, without polymyxin B, 1st experiment
  MBC without PB: 0.5 µg/mL
[6]; +[…] PB
  MIC: ≤ 0.125 µg/mL
  MIC without PB/MIC + PB: ≥2
[6]; +[…] PB, value in parentheses marked *, mark not explained
  MIC: 0.25 µg/mL
[6]; without PB
  MIC: 0.25 µg/mL
[7]; +0.06 μg/ml PB, 2nd experiment
  MIC: ≤0.125 µg/mL
  MIC without PB/MIC + PB: ≥2
[7]; without PB, 2nd experiment
  MIC: 0.25 µg/mL
[7]; [26]
  MIC without PB: 0.25 µg/mL
[8]; +[…] polymyxin B
  MIC +[…] PB: 1 µg/mL
[8]; ratio, PB […]
  MIC without PB/MIC + PB: 0.5
[8]; without polymyxin B
  MIC without PB: 0.5 µg/mL
[9]; [28]
  MIC: 0.25 µg/mL
  MIC without PB/MIC + PB: 1
[9]; Acinetobacter spp. H064200250 (OXA51), without PB, 2nd experiment
  MIC: 0.25 µg/mL
[9]; Acinetobacter spp. H064200250, +[…] polymyxin B, 1st experiment
  MIC +[…] PB: 0.25 µg/mL
[9]; Acinetobacter spp. H064200250, ratio, PB […], 1st experiment
  MIC without PB/MIC + PB: 2
[9]; Acinetobacter spp. H064200250, without polymyxin B, 1st experiment
  MIC without PB: 0.5 µg/mL
[10]; A baumannii A 401, +0.06 μg/ml PB
  MBC: 0.25 µg/mL
[10]; A baumannii A 401, +0.06 μg/ml polymyxin B, 1st experiment
  MBC +0.06 μg/ml PB: 0.5 µg/mL
[10]; A baumannii A 401, without PB
  MBC: 0.5 µg/mL
[10]; A baumannii A 401, without polymyxin B, 1st experiment
  MBC without PB: 1 µg/mL
[11]; +0.06 μg/ml PB
  MIC: 0.25 µg/mL
  MIC without PB/MIC + PB: 1
[11]; without PB
  MIC: 0.25 µg/mL
[12]; +[…] PB
  MIC: 0.25 µg/mL
[12]; [27]
  MIC +[…] PB: ≤0.125 µg/mL
[12]; ratio, PB […], 1st experiment
  MIC without PB/MIC + PB: ≥4
[12]; without PB
  MIC: 0.5 µg/mL
[12]; [26]
  MIC without PB: 0.5 µg/mL
[13]; +[…] PB
  MBC: 0.25 µg/mL
[13]; [27]
  MBC +[…] PB: 1 µg/mL
[13]; without PB
  MBC: 0.5 µg/mL
[13]; [26]
  MBC without PB: 2 µg/mL
[14]; A. baumannii A390, +0.06 μg/ml PB
  MBC: ≤0.125 µg/mL
[14]; A. baumannii A390, without PB
  MBC: 0.25 µg/mL
[14]; A. baumannii A390, without polymyxin B, 1st experiment
  MBC without PB: 0.25 µg/mL
[15]; A. baumannii A473, +0.06 μg/ml PB
  MBC: 0.25 µg/mL
[15]; A. baumannii A473, without PB
  MBC: 0.25 µg/mL
[15]; A. baumannii A473, without polymyxin B, 1st experiment
  MBC without PB: 1 µg/mL
[16]; +[…] PB
  MBC: ≤0.125 µg/mL
[16]; [27]
  MBC +[…] PB: 0.5 µg/mL
[16]; without PB
  MBC: 0.25 µg/mL
[16]; [26]
  MBC without PB: 0.5 µg/mL
[17]; A. baumannii A14, +0.06 μg/ml PB
  MBC: 0.25 µg/mL
[17]; A. baumannii A14, without PB
  MBC: 0.25 µg/mL
[18]; +0.06 μg/ml polymyxin B
  MBC +0.06 μg/ml PB: 0.5 µg/mL
[18]; without polymyxin B
  MBC without PB: 0.5 µg/mL
[19]; +0.06 μg/ml PB, 2nd experiment
  MIC: 0.25 µg/mL
  MIC without PB/MIC + PB: 2
[19]; [24]
  MIC +0.06 μg/ml PB: 0.5 µg/mL
[19]; [25]
  MIC without PB/MIC + PB: 1
[19]; without PB, 2nd experiment
  MIC: 0.5 µg/mL
[19]; [26]
  MIC without PB: 0.5 µg/mL
[20]; +0.06 μg/ml polymyxin B
  MIC +0.06 μg/ml PB: 0.5 µg/mL
[20]; ratio, PB 0.06 μg/ml
  MIC without PB/MIC + PB: 1
[20]; without polymyxin B
  MIC without PB: 0.5 µg/mL
[21]; A. baumannii ATCC 19606, +0.06 μg/ml PB
  MBC: 0.25 µg/mL
[21]; A. baumannii ATCC 19606, +0.06 μg/ml polymyxin B, 1st experiment
  MBC +0.06 μg/ml PB: 0.5 µg/mL
[21]; A. baumannii ATCC 19606, without PB
  MBC: 0.5 µg/mL
[21]; A. baumannii ATCC 19606, without polymyxin B, 1st experiment
  MBC without PB: 0.5 µg/mL
[22]; +[…] PB
  MBC: 0.25 µg/mL
[22]; [27]
  MBC +[…] PB: ≤0.125 µg/mL
[22]; without PB
  MBC: 0.5 µg/mL
[22]; [26]
  MBC without PB: 0.5 µg/mL
[23]; +[…] PB, 2nd experiment
  MIC: 0.25 µg/mL
  MIC without PB/MIC + PB: 2
[23]; [27]
  MIC +[…] PB: 1 µg/mL
[23]; ratio, PB […], 1st experiment
  MIC without PB/MIC + PB: 2
[23]; without PB, 2nd experiment
  MIC: 0.5 µg/mL
[23]; [26]
  MIC without PB: 2 µg/mL
